Article PMC3493464, “Functional Analysis of Metabolic Channeling and Regulation in Lignin Biosynthesis: A Computational Approach” (PLoS Computational Biology, 2012)

Columns and labels:
[1] = target: T1, CCoAOMT (caffeoyl CoA O-methyltransferase) (Medicago sativa, UniProt Q40313); test: HPLC assay of feruloyl CoA formation; format: biochemical; settings: 20, 30 or 40 µM caffeoyl CoA; 200 µM S-adenosyl methionine, 600 µM MgCl2, 2 mM DTT, pH 7.5, 30 °C
T1 construct: gene CCOMT; alfalfa cDNA in pET15b, His-tagged, expressed in E. coli Rosetta, Ni-NTA purified; tag removal not mentioned

[2] = target: T1, CCoAOMT (caffeoyl CoA O-methyltransferase); test: HPLC assay of feruloyl CoA formation; format: biochemical; settings: putative activator; 2 µM caffeyl aldehyde, 20 µM caffeoyl CoA, 200 µM S-adenosyl methionine, 600 µM MgCl2, 2 mM DTT, 4% DMSO, pH 7.5, 30 °C

T1 sequence (Q40313 whole entry): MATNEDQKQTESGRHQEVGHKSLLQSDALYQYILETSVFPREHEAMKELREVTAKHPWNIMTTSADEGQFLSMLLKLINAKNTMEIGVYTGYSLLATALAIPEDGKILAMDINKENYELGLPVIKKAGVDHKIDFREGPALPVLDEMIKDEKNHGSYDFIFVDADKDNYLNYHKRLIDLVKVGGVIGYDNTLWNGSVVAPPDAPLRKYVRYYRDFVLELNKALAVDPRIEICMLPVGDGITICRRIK

% increase in activity at 2 μM [2] | SMILES | HPLC assay of feruloyl CoA formation [1]
 | CC(C)(COP(=O)(O)OP(=O)(O)OC[C@H]1O[C@@H](n2cnc3c(N)ncnc32)[C@H](O)[C@@H]1OP(=O)(O)O)[C@@H](O)C(=O)NCCC(=O)NCCSC(=O)/C=C/c1ccc(O)c(O)c1 [caffeoyl CoA] | assayed the purified recombinant enzyme with caffeoyl CoA as substrate
16% | O=C/C=C/c1ccc(O)c(O)c1 [caffeyl aldehyde] | 
